Data from PMC9180926, “Discovery of Novel 3-Hydroxyquinazoline-2,4(1H,3H)-Dione Derivatives: A Series of Metal Ion Chelators with Potent Anti-HCV Activities” (International Journal of Molecular Sciences, 2022).
Entries after “also recorded” stand apart in the source; their conditions may differ. Read-outs that look alike come from different tables or passages of the source.

What was measured:
[1] = tested on: HCV 1b replicon cells (Huh-7.5.1); experiment: Anti-HCV assay, HCV 1b replicon cells with luciferase reporter; format: cell-based, hepatitis C virus (HCV) subtype 1b; conditions: HCV 1b replicon cells; for inhibition at 10 µM / inhibition at 25 µM: Huh-7.5.1, 72 h, 72 h; for inhibition at 10 µM: inhibitory rate at 10 μM, read-out: HCV Inhibition 10 μM; for inhibition at 25 µM: inhibitory rate at 25 μM, read-out: HCV Inhibition 25 μM; for EC50: mean ± SD
Method: (§1) The HCV replicons were validated as convenient and effective models for testing the anti-HCV activity. Since HCV subtype 1b is one of the major subtypes worldwide, especially in China, the replicon model from the Huh-7.5.1 cell line integrating HCV 1b genome encoding the nonstructural proteins was chosen to evaluate the anti-HCV activities of 3-hydroxyquinazoline-2,4(1H,3H)-diones. The inhibitory rates of the compounds on HCV replicon cells were determined at concentrations of 25 μM and 10 μM, respectively. The broad-spectrum antiviral drug ribavirin (RBV) and the NS5B nucleoside inhibitor 2′-C-methyladenosine (2CMA) were selected as positive controls. The cytotoxicity of these compounds on replicon cells was determined using the cell counting kit-8 (CCK-8) assay.
HCV 1b replicon cells (Huh-7.5.1) containing luciferase reporter gene were kindly provided by Prof. Zhenghong Yuan (Key Laboratory of Medical Molecular Virology, Fudan University, Shanghai, China). The replicon cells were plated at 1.5 × 10^4 cells per well in a 48-well plate (Corning Inc., New York, NY, USA) at 5% CO2/37 °C. The culture medium was Dulbecco’s Modified Eagle Medium (DMEM, pH 7.3, Shanghai XP Biomed Ltd., Shanghai, China) containing 10% fetal bovine serum (Shanghai XP Biomed Ltd., Shanghai, China), 10^5 U/L penicillin, 0.1 g/L streptomycin, and 0.5 μg/mL blasticidin. After 12 h, the culture medium in each well was replaced with 300 μL of pre-prepared fresh culture medium containing test compound (dissolved in DMSO with specific concentration) or blank DMSO. The final concentration of DMSO in the culture medium in the plate was 0.1%. Each group was tested at least twice in parallel. Ribavirin and 2CMA were used as the positive controls. After incubating the drug-added plate at 5% CO2/37 °C for 72 h, the medium was removed, and each well was washed with 300 μL of phosphate buffer solution (PBS, Shanghai XP Biomed Ltd., Shanghai, China). The cells in each well were then lysed with 50 μL of 1× lysis buffer (E2820, Promega, Madison, WI, USA). Subsequently, 50 μL of 1× luciferase assay substrate (E2820, Promega, Madison, WI, USA) was mixed with 20 μL of the harvested cell lysates.
The inhibitory rates under at least six different concentration gradients were imported into GraphPad Prism 7.0 software to calculate the anti-HCV EC50 values of the compounds using the nonlinear fitting method.

[2] = Cytotoxicity assay (CCK-8) on replicon cells; format: cell-based; conditions: human, HCV 1b replicon cells (Huh-7.5.1); 50% cytotoxic concentration; CCK-8, HCV 1b replicon cells, 72 h
Method: as §1
(§2) The HCV 1b replicon cells were incubated and treated with test compounds or blank DMSO in a 48-well plate using the same materials and methods as described in the experimental procedure of anti-HCV assay. The final concentration of DMSO in each well was 0.1%. After 72 h of drug treatment, the culture medium in the well plate was removed, and cells in each well were washed with 300 μL of PBS. A total of 300 μL of pre-prepared fresh culture medium containing 30 μL CCK-8 reagent (Donjindo, Kumamoto, Japan) was added to each well, and the plate was incubated at 5% CO2/37 °C for 2 h. The OD (optical density) value of each well at 450 nm was measured using a multi-function microplate reader (SpectraMax M5, Molecular Devices, San Jose, CA, USA). The death ratio of each well was calculated using the following equation, in which ODcompound or ODblank represents the measured OD value of the compound group or the blank control (DMSO), respectively:death ratio = (1−ODcompound/ODblank) × 100%(2)
(§3) The cell death data under at least six different concentration gradients were imported into GraphPad Prism 7.0.0 software (GraphPad Software Inc., San Diego, CA, USA), and the CC50 (50% cytotoxic concentration) values were calculated using the nonlinear fitting method.

[3] = biological target: T1, C-terminal His-tagged NS5BΔ21 from HCV 1b subtype (Hepatitis C virus genotype 1b, UniProt Q913V3); experiment: Thermal shift assay with NS5B protein; format: binding; conditions: for ΔTm at 50 µM: compound 50 μM; for ΔTm at 100 µM: compound 100 μM
T1 construct: C-terminal His-tagged NS5BΔ21 from HCV 1b subtype; His tag (C); made in house
Description: The stability of a protein system is enhanced after binding to its specific ligand, leading to an increase in the melting temperature (Tm). Taking advantage of this feature, the thermal shift assay was extensively used to assess the binding of small molecules to the protein targets. The metal ion chelators were thought to exert an anti-HCV effect by chelating with Mg^2+ in the catalytic center of NS5B [34, 36, 38]. […] C-terminal His-tagged NS5BΔ21 from HCV 1b subtype was used as the protein in the experiment. Compared with the blank control (DMSO), the fluorescence–temperature curves of the NS5B system in the presence of 21e (Figure 3A) and 21k (Figure 3B) at 50 μM, 100 μM, and 200 μM all shifted to the right of the axis. The Tm values of 21e and 21k increased in a concentration-dependent manner, presenting higher values than that of the blank control (Tm = 63.5 °C) at all tested concentrations.
C-terminal His-tagged NS5BΔ21 from HCV 1b subtype was expressed from pET28a HCR6 plasmid in our lab and dissolved in a Tris-HCl buffer (20 mm, pH 7.2) containing 150 mm NaCl. Then, 1 μL of corresponding concentration (1 mm, 2 mm, or 4 mm) of the test compound in DMSO or 1 μL DMSO alone was added to each well of a 96-well PCR plate (Shanghai Sangon Biotech Co., Ltd., Shanghai, China). Subsequently, 19 μL of pre-prepared PBS solution containing 10 mm MgCl2, 10× SYPRO® orange protein gel stain (Sigma-Aldrich, St. Louis, MO, USA), and 5 μM NS5B protein was added to each well and mixed. The final concentration of DMSO in each well was 5%. The PCR plate was covered with a high-permeable film, incubated at room temperature for 10 min, and then placed on the Applied Biosystems^TM 7500 Real-Time PCR System (Thermo Fisher Scientific, Waltham, MA, USA). The temperature was increased to 90 °C gradually, and the change curve of fluorescence intensity versus system temperature was recorded.

[4] = tested on: HCV 1b replicon cells (Huh-7.5.1); experiment: Anti-HCV assay, HCV 1b replicon cells with luciferase reporter; format: cell-based, hepatitis C virus (HCV) subtype 1b; conditions: Hepatitis C virus, Huh-7.5.1, 72 h, inhibitory rate at 5 μM
NS5B = conditions: cited from earlier work
[5] = tested on: HCV 1b replicon cells (Huh-7.5.1); experiment: Cytotoxicity assay (CCK-8) on replicon cells; format: cell-based; conditions: replicon cells, tested concentrations
Method: as §1, §2, §3

HCV = conditions: cited from earlier work
[6] = parameters: method as in PMID 22100256; conditions: Figure 1; read-out: NS5B CC50; cited from earlier work
[7] = Tm of compound group minus Tm of blank control, mean ± SD, three experiments
[8] = Hepatitis C virus, Huh-7.5.1, 50% effective concentration
[9] = 5,6-dihydroxypyrimidine-4-carboxylic acids

T1 sequence (Q913V3 2420-2989, stated change not applied): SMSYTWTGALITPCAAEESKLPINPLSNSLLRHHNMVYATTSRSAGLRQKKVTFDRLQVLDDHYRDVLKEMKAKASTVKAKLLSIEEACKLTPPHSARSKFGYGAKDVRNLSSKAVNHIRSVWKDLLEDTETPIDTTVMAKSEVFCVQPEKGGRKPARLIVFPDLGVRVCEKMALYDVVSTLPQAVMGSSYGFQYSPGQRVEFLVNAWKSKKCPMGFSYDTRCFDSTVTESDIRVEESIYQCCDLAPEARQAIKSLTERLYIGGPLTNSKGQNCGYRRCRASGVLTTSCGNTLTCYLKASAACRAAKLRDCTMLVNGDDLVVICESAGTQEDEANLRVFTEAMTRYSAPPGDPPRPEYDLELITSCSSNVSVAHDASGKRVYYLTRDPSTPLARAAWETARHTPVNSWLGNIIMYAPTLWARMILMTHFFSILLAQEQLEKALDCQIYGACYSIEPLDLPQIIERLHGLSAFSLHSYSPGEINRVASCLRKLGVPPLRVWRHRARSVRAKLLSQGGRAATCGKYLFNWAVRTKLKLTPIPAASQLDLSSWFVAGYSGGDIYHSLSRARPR

SMILES | inhibition at 10 µM ([1]; Hepatitis C virus) [%] | CC50 at 72 h [2] [µM] | inhibition at 5 µM [4] [%] | EC50 [1, 8] [µM] | other results
O=c1[nH]c2cc(-c3cccc([N+](=O)[O-])c3)ccc2c(=O)n1O [21k, 3-Hydroxy-7-(3-nitrophenyl)quinazoline-2,4(1H,3H)-dione] | 70.6 | 40.9 ± 3.5 | 55 |  | ΔTm at 50 µM [3, 7]: 0.87 ± 0.12 °C; ΔTm at 100 µM [3, 7]: 1.6 ± 0.08 °C; ΔTm at 200 µM ([3]; compound 200 μM, Tm of compound group minus Tm of blank control, mean ± SD, three experiments, read-out: ΔTm 200 μM): 2.1 ± 0.44 °C; Tm of NS5B complexed with compound ([3]; in Figure 3, blank control Tm = 63.5 °C): 65.6 °C
N#Cc1c(Cl)cc(Cl)cc1COc1cccc(C(=O)CC(=O)C(=O)O)c1 [compound 2] |  |  |  |  | IC50 (NS5B; α,γ-diketo acids): 0.045 µM
O=c1[nH]c2cc(-c3cc4ccccc4o3)ccc2c(=O)n1O [21t, 7-(Benzofuran-2-yl)-3-hydroxyquinazoline-2,4(1H,3H)-dione] | 68.3 | > 50 |  |  | inhibition at 25 µM ([1]; Hepatitis C virus): 78.5%; cytotoxicity (in words) [5]: no obvious cytotoxic effect; also recorded: No cytotoxic effect was observed
NC(=O)c1ncn([C@@H]2O[C@H](CO)[C@@H](O)[C@H]2O)n1 [RBV, ribavirin, reference compound] |  | 45.5 ± 2.6 |  | 20 ± 4.1 | inhibition at 25 µM ([1]; Hepatitis C virus): 53.2%; EC50 (HCV; cellular level, reported): 14 µM
O=C(O)C(=O)CC(=O)c1ccccc1 [compound 1] |  |  |  |  | IC50 (NS5B; α,γ-diketo acids): 5.7 µM
C[C@@]1(O)[C@H](O)[C@@H](CO)O[C@H]1n1cnc2c(N)ncnc21 [2CMA, 2′-C-methyladenosine, reference compound] |  | > 10 |  | 0.36 ± 0.03 | EC50 (HCV; reported): 0.3 µM
O=c1c2ccccc2n(CCc2ccc(F)cc2)c(=O)n1O [10d, 1-(4-Fluorophenethyl)-3-hydroxyquinazoline-2,4(1H,3H)-dione] | 36.4 | 22.2 ± 4.6 |  | 13.3 ± 0.9 | inhibition at 25 µM ([1]; Hepatitis C virus): 75.7%; cytotoxicity (in words) [5]: some cytotoxicity
O=C(NCc1ccccc1Cl)Nc1cscc1-c1nc(O)c(O)c(C(=O)O)n1 [compound 5] |  |  |  |  | EC50 (HCV; cellular level): 9.3 µM; IC50 (NS5B; [9]): 0.15 µM
O=C(O)c1nc(-c2cccs2)nc(O)c1O [compound 4] |  |  |  |  | EC50 (HCV; cellular level): > 100 µM; IC50 (NS5B; [9]): 2.6 µM
O=C(O)c1occc(=O)c1O [compound 3] |  |  |  |  | EC50 (HCV; cellular level): > 50 µM; IC50 (NS5B; meconic acids): 2.25 µM
O=c1[nH]c2cc(-c3ccc(F)c(Cl)c3)ccc2c(=O)n1O [21l, 7-(3-Chloro-4-fluorophenyl)-3-hydroxyquinazoline-2,4(1H,3H)-dione] | 49.7 | 40.7 ± 3.9 | 25.9 | 7.9 ± 1 | 
O=c1[nH]c2cc(-c3ccc(C(F)(F)F)cc3)ccc2c(=O)n1O [21h, 3-Hydroxy-7-(4-(trifluoromethyl)phenyl)quinazoline-2,4(1H,3H)-dione] | 53.8 | > 50 | 5 | < 10 | EC50 ([1]; 50% effective concentration): 9.6 ± 2.7 µM; cytotoxicity (in words) [5]: no cytotoxicity was observed
Nc1ccccc1-c1ccc2c(=O)n(O)c(=O)[nH]c2c1 [21g, 7-(2-Aminophenyl)-3-hydroxyquinazoline-2,4(1H,3H)-dione] | 64.7 | 16.2 ± 0.7 | 24.7 | 8.8 ± 1.8 | 
O=c1[nH]c2cc(-c3ccc(F)cc3)ccc2c(=O)n1O [21f, 7-(4-Fluorophenyl)-3-hydroxyquinazoline-2,4(1H,3H)-dione] | 78.8 | 4.1 ± 0.6 | 73.4 | 3.1 ± 0.1 | 
O=c1c2ccccc2n(CCc2ccccc2Cl)c(=O)n1O [10c, 1-(2-Chlorophenethyl)-3-hydroxyquinazoline-2,4(1H,3H)-dione] | 33.4 | 12.2 |  | > 12.2 | inhibition at 25 µM ([1]; Hepatitis C virus): 67.8%; cytotoxicity (in words) [5]: some cytotoxicity
Nc1ncnc2c1ncn2[C@@H]1O[C@H](COP(=O)(O)OP(=O)(O)O)[C@@H](O)[C@H]1O [ADP, adenosine diphosphate, reference compound] |  |  |  |  | ΔTm at 50 µM [3, 7]: 0.44 ± 0.11 °C; ΔTm at 100 µM [3, 7]: 0.62 ± 0.05 °C; ΔTm 200 μM ([3]; compound 200 μM, Tm of compound group minus Tm of blank control, mean ± SD, three experiments): 0.88 ± 0.06 °C; ΔTm at 200 µM ([3]; read-out: ΔTm 200 μM, compound 200 μM, Tm of compound group minus Tm of blank control, mean ± SD, three experiments): 0.87 °C
O=C1Cc2cc(-c3ccco3)ccc2C(=O)N1O [compound 6] |  |  |  |  | CC50 [6]: 13 µM; EC50 (HCV; cellular level, reported): 1.9 µM; IC50 (NS5B; 2-hydroxyisoquinoline-1,3-diones): 1.3 µM
O=c1[nH]c2cc(-c3ccco3)ccc2c(=O)n1O [21s, 7-(Furan-2-yl)-3-hydroxyquinazoline-2,4(1H,3H)-dione] | 72.6 | 16.3 ± 0.6 | 56.2 | 4 ± 0.5 | 
